Results from the supplement of paper PMC10307832.

How the values were obtained:
Assay in all cases: relative viability (nuclei count vs DMSO), 5 days (fraction); higher = more cells survive
[1] = compound: COc1cc2c(Oc3ccc4[nH]c(C)cc4c3F)ncnc2cc1OCCCN1CCCC1 [Cediranib] + Nc1nc2[nH]cc(CCc3ccc(C(=O)N[C@@H](CCC(=O)O)C(=O)O)cc3)c2c(=O)[nH]1 [Pemetrexed] (partner 0.2 µM)
Outline: (§1)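 Lung cancer cell lines, seeded in 1536-well plates, were treated the following day by pin tool with a single drug or with five library-drug doses (not always all listed) in √10 steps on top of a fixed anchor-drug dose. Cells were fixed and nuclei stained in one step after 5 days, and nuclei were counted. Relative viability is the nuclei count for treated wells divided by that for vehicle wells, reported as medians of duplicate plates.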

[2] = compound: COc1cc2c(Oc3ccc4[nH]c(C)cc4c3F)ncnc2cc1OCCCN1CCCC1 [Cediranib] + CS(=O)(=O)N1CCN(Cc2cc3nc(-c4cccc5[nH]ncc45)nc(N4CCOCC4)c3s2)CC1 [Pictilisib] (partner 1 µM)
Outline: as §1

[3] = compound: O=C(C[C@H]1NCCC[C@@H]1O)Cn1cnc2cc(Br)c(Cl)cc2c1=O (racemic) [Halofuginone] + C[C@]1(O)C[C@@H](c2nc(-c3ccc4ccc(-c5ccccc5)nc4c3)c3c(N)nccn32)C1 [Linsitinib] (partner 1 µM)
Outline: as §1

[4] = compound: O=C(C[C@H]1NCCC[C@@H]1O)Cn1cnc2cc(Br)c(Cl)cc2c1=O (racemic) [Halofuginone] + COc1cccc2cc(-c3nc([C@H]4CC[C@H](C(=O)O)CC4)n4ncnc(N)c34)[nH]c12 [OSI-027] (partner 0.5 µM)
Outline: as §1

Cell Line | relative viability ([1]; first compound 0.04 µM) | relative viability ([1]; first compound 0.1265 µM) | relative viability ([1]; first compound 0.4 µM) | relative viability ([1]; first compound 1.265 µM) | relative viability ([1]; first compound 4 µM) | relative viability ([2]; first compound 0.04 µM) | relative viability ([2]; first compound 0.1265 µM) | relative viability ([2]; first compound 0.4 µM) | relative viability ([2]; first compound 1.265 µM) | relative viability ([2]; first compound 4 µM) | relative viability ([3]; first compound 0.001 µM) | relative viability ([3]; first compound 0.003162 µM) | relative viability ([3]; first compound 0.01 µM) | relative viability ([3]; first compound 0.03162 µM) | relative viability ([3]; first compound 0.1 µM) | relative viability ([4]; first compound 0.001 µM) | relative viability ([4]; first compound 0.003162 µM) | relative viability ([4]; first compound 0.01 µM) | relative viability ([4]; first compound 0.03162 µM) | relative viability ([4]; first compound 0.1 µM)
NCI-H1651 | 0.601 | 0.619 | 0.592 | 0.497 | 0.53 | 0.666 | 0.77 | 0.533 | 0.458 | 0.445 | 1.07 | 0.978 | 0.994 | 0.6 | 0.332 | 0.825 | 0.701 | 0.655 | 0.665 | 0.382
NCI-H1666 | 0.889 | 0.962 | 0.898 | 0.912 | 0.841 | 0.383 | 0.475 | 0.422 | 0.5 | 0.431 | 1.03 | 0.957 | 0.779 | 0.842 | 0.703 | 1.01 | 0.869 | 0.766 | 0.955 | 0.852
NCI-H1734 | 0.472 | 0.409 | 0.412 | 0.425 | 0.425 | 0.457 | 0.541 | 0.54 | 0.365 | 0.47 | 0.904 | 0.947 | 0.888 | 0.938 | 0.416 | 0.579 | 0.587 | 0.543 | 0.554 | 0.501
NCI-H1755 | 0.432 | 0.391 | 0.422 | 0.437 | 0.449 | 0.329 | 0.349 | 0.415 | 0.392 | 0.396 | 1.06 | 1.02 | 0.971 | 0.985 | 0.768 | 0.76 | 0.788 | 0.677 | 0.753 | 0.627
NCI-H1792 | – | 1.13 | 0.567 | 0.742 | 0.796 | 0.305 | 0.33 | 0.3 | 0.312 | 0.291 | 0.602 | 0.501 | 0.642 | 0.569 | 0.523 | 0.71 | 0.749 | 0.801 | 0.737 | 0.592
NCI-H1793 | 0.822 | 0.991 | 0.693 | 0.568 | 1.14 | 0.404 | 0.294 | 0.345 | – | 0.299 | 0.985 | 0.962 | 0.822 | 0.883 | 0.398 | 0.299 | 0.253 | 0.297 | 0.288 | 0.196
NCI-H1915 | 0.655 | 0.74 | 0.448 | 0.516 | 0.446 | 0.874 | 0.722 | 0.87 | 0.837 | 1.04 | 1.05 | 1.1 | 1 | 1.06 | 0.974 | 0.616 | 0.62 | 0.643 | 0.549 | 0.544
NCI-H1944 | 0.709 | 0.473 | 0.562 | 0.593 | 0.713 | 0.33 | 0.494 | 0.328 | 0.297 | 0.328 | 1.2 | 1.1 | 1.22 | 1.13 | 0.936 | 0.422 | 0.431 | 0.447 | 0.404 | 0.343
NCI-H1975 | 0.269 | 0.314 | 0.277 | 0.301 | 0.284 | 0.316 | 0.466 | 0.275 | 0.239 | 0.29 | 1.09 | 0.924 | 0.976 | 0.497 | 0.15 | 0.751 | 0.744 | 0.67 | 0.473 | 0.348
NCI-H1993 | – | 0.581 | 0.627 | 0.49 | 0.585 | 0.883 | 0.806 | 0.719 | 0.805 | 0.809 | 0.742 | 0.685 | 0.72 | 0.801 | 0.544 | 0.56 | 0.592 | 0.564 | 0.47 | 0.523
NCI-H2009 | 1.08 | 0.914 | 0.957 | 1.04 | 0.999 | 0.769 | 0.325 | 0.644 | 0.639 | 0.822 | 1.27 | 1.12 | 1.19 | 0.872 | 0.81 | 0.835 | 0.795 | 0.655 | 0.468 | 0.264
NCI-H2023 | 0.283 | 0.274 | 0.254 | 0.233 | 0.248 | 0.269 | 0.101 | 0.226 | 0.193 | 0.236 | 0.76 | 0.535 | 0.706 | 0.232 | 0.157 | 0.488 | 0.421 | 0.36 | 0.3 | 0.0722
NCI-H2085 | 0.892 | 1.06 | 0.864 | 0.812 | 0.9 | 0.466 | 0.501 | 0.473 | 0.419 | 0.399 | 0.863 | 1.01 | 0.864 | 0.898 | 0.627 | 0.886 | 0.832 | 0.755 | 0.721 | 0.523
NCI-H2087 | 0.734 | 0.678 | 0.633 | 0.587 | 0.63 | 0.921 | 0.763 | 0.825 | 0.752 | 0.935 | 1.01 | 1.04 | 0.945 | 0.98 | 0.833 | 0.439 | 0.593 | 0.528 | 0.484 | 0.424
NCI-H2126 | 0.701 | 0.595 | 0.627 | 0.725 | 0.748 | 0.442 | 0.432 | 0.458 | 0.452 | 0.435 | 0.73 | 0.671 | 0.673 | 0.71 | 0.648 | 0.727 | 0.604 | 0.695 | 0.612 | 0.549
NCI-H2228 | 0.351 | 0.346 | 0.359 | 0.325 | 0.325 | 0.522 | 0.504 | 0.459 | 0.288 | 0.557 | 0.589 | 0.926 | 0.69 | 0.394 | 0.199 | 0.741 | 0.647 | 0.465 | 0.371 | 0.198
